According to US8829014B2, “Thiazole and thiophene analogues, and their use in treating autoimmune diseases and cancers” (Board of Supervisors of Louisiana State University and …, priority 2006, dated 2014):
Read-outs that look alike come from different tables or passages of the source.

Tests used:
[1] = system: carageenan-induced edema; test: Carrageenan-induced rat paw edema test (anti-inflammatory activity); type: in vivo, Sprague-Dawley rats; set-up: % Protection: concentration or dose not given beside the values; details: carrageenan-induced rat paw edema, defined in Example 397; for inhibition in vivo at 50 mg/kg: po, 3 h, read-out: % Protection
Procedure, shortened: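 Edema was raised by sub-plantar injection of 1% carrageenan into the right hind paw, 1 h after dosing 18 h-fasted male/female Sprague-Dawley rats (150-250 g) with 50 mg/kg p.o. in 0.1% CMC. Swelling was measured by displacement 3 h later and expressed as % protection against saline control.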

[2] = system: NF-κB; test: NF-κB inhibitor screen: basal NF-κB-dependent luciferase expression in HEK/NF-κB cell line; type: cell-based; details: for NFkB inhibition @ 1 uM / inhibition at 1 µM: determined as described in Example 398; for inhibition at 1 µM: read-out: NFkB inhibition @ 1 uM
Description: Development of NF-κB and AP-1 Screens: Two HEK293 cell lines were purchased from Panomics. One cell line was stably transfected with a plasmid in which luciferase expression is regulated by six copies of the NF-κB transcriptional element (5′-[…]-3′); and the other cell line was stably transfected with a plasmid in which luciferase expression is regulated by three copies of the AP-1 transcriptional element (TGACTAA). To test the biological activity of the promoters, the HEK/NF-κB cell line was stimulated with TNF-α (20 ng/ml) for 24 hours, and the HEK/AP-1 cell line was stimulated with PMA (10 ng/ml) for 24 hours. […] In addition, a pyrimidine carboxyimide that had previously been shown (ref. 58) to be an inhibitor of transcription mediated by NF-κB and AP-1 reduced luciferase activity by approximately 40% in each of the NF-κB and AP-1 cell lines.
The above two assays analyzed the effects of the compounds on post-transcriptional gene regulation, which is known to play a key role in cancer and inflammation. By contrast, the NF-κB assay and the following assay (AP-1) test whether the compounds act at the transcriptional level. Thirty-nine representative compounds were screened in an HEK/NF-κB cell line. HEK cells were stably transfected with a plasmid expressing luciferase under the control of the NF-κB promoter. These transfected cells were plated on a 96-well plate. As above, initial screening was carried out at 1.0 μM by adding compound in DMSO (0.3%) twenty-four hours after plating. Each compound was added to each of triplicate wells. DMSO (0.3%) was added to one set of wells as a control. Luciferase activity was determined using Promega's Brite-Glo kit, and the mean for each sample was normalized to that for DMSO.
The fourteen representative compounds identified in the eIF4E screen as interesting (Numbered 2, 3, 4, 6, 8, 11, 15, 20, 21, 24, 25, 32, 33, and 35) were then tested for luciferase activity in a six-point dose response (10 nM, 33 nM, 100 nM, 330 nM, 1000 nM, and 3300 nM). Screening was carried out as described above by monitoring the effects of the compounds on basal NF-κB-dependent luciferase expression. Each dose was used out in triplicate, and repeated between two and four times. Results were normalized by the average expression level at the lowest concentration level, as described above.

[3] = system: AP-1; test: AP-1 inhibitor screen: basal AP-1-dependent luciferase expression in HEK/AP-1 cell line; type: cell-based; details: 1 uM, determined as described in Example 398; for inhibition at 1 µM: AP1
Description: Development of NF-κB and AP-1 Screens: Two HEK293 cell lines were purchased from Panomics. One cell line was stably transfected with a plasmid in which luciferase expression is regulated by six copies of the NF-κB transcriptional element (5′-[…]-3′); and the other cell line was stably transfected with a plasmid in which luciferase expression is regulated by three copies of the AP-1 transcriptional element (TGACTAA). To test the biological activity of the promoters, the HEK/NF-κB cell line was stimulated with TNF-α (20 ng/ml) for 24 hours, and the HEK/AP-1 cell line was stimulated with PMA (10 ng/ml) for 24 hours.
HEK cells were stably transfected with a plasmid expressing luciferase under the control of the AP-1 promoter. The transfected cells were plated on a 96-well plate for 24 hr. Then 1.0 μM of each compound in DMSO (0.3%) was added to triplicate wells and incubated for 48 hr. DMSO (0.3%) was added to one set of triplicate wells as a control. Luciferase activity was determined using Promega's Brite-Glo kit, and the mean for each sample was normalized to that for DMSO.
Screening was carried out as described above, monitoring the compounds' effects on basal AP-1-dependent luciferase expression. Each dose-response experiment was carried out in triplicate and repeated between two and four times.

Row | Molecule | % Protection [1] [%] | NFkB inhibition @ 1 uM [2] | AP-1 inhibition @ 1 uM [3] | inhibition in vivo at 50 mg/kg ([1]; Rattus norvegicus) [%] | inhibition at 1 µM [2] [%] | inhibition at 1 µM [3] [%] | inhibition in vivo at 50 mg/kg [1] [%] | inhibition of basal NF-κB-dependent luciferase expression ([2]; 3.3 μM (FIG. 12))
1 | CNc1nc(C)c(-c2nc3ccccc3c(=O)n2-c2ccccc2C)s1 [Example 168] | 35 | 16 | 67 |  |  |  |  | 
2 | Cc1ccc(-n2c(-c3sc(Nc4ccc(Cl)cc4)nc3C)nc3ccccc3c2=O)cc1 [Example 192, 2-[2-(4-Chlorophenylamino)-4-methyl-thiazol-5-yl]-3-p-tolyl-3H-quinazolin-4-one] |  |  |  | 37 | 12 | 2 |  | 
3 | CNc1nc(-c2ccccc2)c(-c2nc3ccccc3c(=O)n2-c2ccc(Cl)cc2)s1 [Example 251, 2-(2-Methylamino-4-phenyl-thiazol-5-yl)-3-(4-Chloro-phenyl)-3H-quinazolin-4-one] |  |  |  |  | 85 | 69 | 92 | 
4 | Cc1ccc(-n2c(-c3sc(Nc4ccc(Cl)cc4)nc3-c3ccccc3)nc3ccccc3c2=O)cc1 [Example 200, 2-[2-(4-Chloro-phenylamino)-4-phenyl-thiazol-5-yl]-3-p-tolyl-3H-quinazolin-4-one] |  |  |  | 56 | -16 | 2 |  | 
5 | COc1ccc(-n2c(-c3sc(Nc4ccc(Cl)cc4)nc3C)nc3ccccc3c2=O)cc1 [Example 217, 2-[2-(4-Chlorophenylamino)-4-methyl-thiazol-5-yl]-3-(4-methoxyphenyl)-3H-quinazolin-4-one] |  |  |  | 50 | -38 | -43 |  | 
6 | Cc1nc(Nc2ccccc2)sc1-c1nc2ccccc2c(=O)n1-c1ccccc1 [Example 157, 2-(4-Methyl-2-phenylamino-thiazol-5-yl)-3-phenyl-3H-quinazolin-4-one] |  |  |  | 12 | 25 | 16 |  | 
7 | COc1ccc(-n2c(-c3sc(NC(=O)c4ccccc4)nc3-c3ccccc3)nc3ccccc3c2=O)cc1 [Example 222, N-[5-(4-Oxo-3-(4-methoxyphenyl)-3,4-dihydro-quinazolin-2-yl)-4-phenyl-thiazole-2-yl]benzamide] |  |  |  | 24 | 15 | 0 |  | 
8 | COc1cccc(-n2c(-c3sc(Nc4ccccc4)nc3-c3ccccc3)nc3ccccc3c2=O)c1 [Example 213, 3-(3-methoxyphenyl)-2-(4-phenyl-2-phenylamino-thiazol-5-yl)-3H-quinazolin-4-one] |  |  |  | 38 | 35 | 33 |  | 
9 | CCOC(=O)Nc1nc(-c2ccccc2)c(-c2nc3ccccc3c(=O)n2-c2ccc(Cl)cc2)s1 [Example 249, [5-(4-Oxo-3-(4-Chloro-phenyl)-3,4-dihydro-quinazolin-2-yl)-4-phenyl-thiazol-2-yl]-carbamic acid ethyl ester] |  |  |  | 81 | 16 | 0 |  | 
10 | 2-[2-(1-Furan-2-yl-vinylamino)-4-phenyl-thiazol-5-yl]-3-(4-methoxyphenyl)-3H-quinazolin-4-one [Example 224] | 79 | −24 | 2 |  |  |  |  | 
11 | 2-[2-(1-Furan-2-yl-vinylamino)-4-phenyl-thiazol-5-yl]-3-phenyl-3H-quinazolin-4-one [Example 164] | 66 | 2 | 53 |  |  |  |  | 
12 | 2-[2-(1-Furan-2-yl-vinylamino)-4-phenyl-thiazol-5-yl]-3-(4-acetyl-phenyl)-3H-quinazolin-4-one [Example 270] | 20 | 11 | 18 |  |  |  |  | 
13 | COc1ccc(-n2c(-c3sc(Nc4ccccc4)nc3-c3ccccc3)nc3ccccc3c2=O)cc1 [Example 221, 3-(4-Methoxyphenyl)-2-(4-phenyl-2-phenylamino-thiazol-5-yl)-3H-quinazolin-4-one] |  |  |  | 85 | 79 | 18 |  | 
14 | CC(=O)c1ccc(-n2c(-c3sc(Nc4ccc(Cl)cc4)nc3C)nc3ccccc3c2=O)cc1 [Example 263, 2-[2-(4-Chlorophenylamino)-4-methyl-thiazol-5-yl]-3-(4-acetyl-phenyl)-3H-quinazolin-4-one] |  |  |  | 13 | 0 | 2 |  | 
15 | Cc1cccc(-n2c(-c3sc(Nc4ccc(Cl)cc4)nc3-c3ccccc3)nc3ccccc3c2=O)c1 [Example 189, 2-[2-(4-Chloro-phenylamino)-4-phenyl-thiazol-5-yl]-3-m-tolyl-3H-quinazolin-4-one] |  |  |  | 38 | -4 | 83 |  | 
16 | COC(=O)Nc1nc(C)c(-c2nc3ccccc3c(=O)n2-c2ccccc2)s1 [Example 155, (4-Methyl-5-(4-oxo-3-phenyl-3,4-dihydro-quinazolin-2-yl)-thiazol-2-yl)-carbamic acid methyl ester] |  |  |  | 0 | 24 | -1 |  | 
17 | CCOC(=O)Nc1nc(-c2ccccc2)c(-c2nc3ccccc3c(=O)n2-c2ccc(C(C)=O)cc2)s1 [Example 264, [5-(4-Oxo-3-(4-acetyl-phenyl)-3,4-dihydro-quinazolin-2-yl)-4-phenyl-thiazol-2-yl]-carbamic acid ethyl ester] |  |  |  | 40 | 25 | 25 |  | 
18 | CCOC(=O)Nc1nc(C)c(-c2nc3ccccc3c(=O)n2-c2ccccc2)s1 [Example 154, (4-Methyl-5-(4-oxo-3-phenyl-3,4-dihydro-quinazolin-2-yl)-thiazol-2-yl)-carbamic acid ethyl ester] |  |  |  | 12 | 19 | -13 |  | 
19 | Cc1ccc(C(=O)Nc2nc(-c3ccccc3)c(-c3nc4ccccc4c(=O)n3-c3ccccc3)s2)cc1 [Example 163, 4-Methyl-N-[5-(4-oxo-3-phenyl-3,4-dihydroquinazolin-2-yl)-4-phenyl-thiazol-2-yl]-benzamide] |  |  |  | 77 | 88 | 68 |  | 
20 | O=C(Nc1nc(-c2ccccc2)c(-c2nc3ccccc3c(=O)n2-c2ccccc2)s1)c1ccccc1 [Example 162] | 87 | 58 | 17 |  |  |  |  | 
21 | O=C(Nc1nc(-c2ccccc2)c(-c2nc3ccccc3c(=O)n2-c2ccc(Cl)cc2)s1)c1ccccc1 [Example 253, N-[5-(4-Oxo-3-(4-Chloro-phenyl)-3,4-dihydro-quinazolin-2-yl)-4-phenyl-thiazole-2-yl]benzamide] |  |  |  | 83 | 87 | 28 |  | 
22 | CCOC(=O)Nc1nc(C)c(-c2nc3ccccc3c(=O)n2-c2ccc(Cl)cc2)s1 [Example 242, (4-Methyl-5-(4-oxo-3-(4-chloro-phenyl)-3,4-dihydro-quinazolin-2-yl)-thiazol-2-yl)-carbamic acid ethyl ester] |  |  |  | 65 | 53 | 12 |  | about 50%
